Experimental data as given in US9790229B2, “Bruton's tyrosine kinase inhibitors” (priority 2009, dated 2017).

Target: BTK (Homo sapiens (Human), UniProt Q06187)
Experiment: In vitro BTK kinase assay: BTK-POLYGAT-LS ASSAY
Settings: not given

Chain of BTK (Q06187 whole entry): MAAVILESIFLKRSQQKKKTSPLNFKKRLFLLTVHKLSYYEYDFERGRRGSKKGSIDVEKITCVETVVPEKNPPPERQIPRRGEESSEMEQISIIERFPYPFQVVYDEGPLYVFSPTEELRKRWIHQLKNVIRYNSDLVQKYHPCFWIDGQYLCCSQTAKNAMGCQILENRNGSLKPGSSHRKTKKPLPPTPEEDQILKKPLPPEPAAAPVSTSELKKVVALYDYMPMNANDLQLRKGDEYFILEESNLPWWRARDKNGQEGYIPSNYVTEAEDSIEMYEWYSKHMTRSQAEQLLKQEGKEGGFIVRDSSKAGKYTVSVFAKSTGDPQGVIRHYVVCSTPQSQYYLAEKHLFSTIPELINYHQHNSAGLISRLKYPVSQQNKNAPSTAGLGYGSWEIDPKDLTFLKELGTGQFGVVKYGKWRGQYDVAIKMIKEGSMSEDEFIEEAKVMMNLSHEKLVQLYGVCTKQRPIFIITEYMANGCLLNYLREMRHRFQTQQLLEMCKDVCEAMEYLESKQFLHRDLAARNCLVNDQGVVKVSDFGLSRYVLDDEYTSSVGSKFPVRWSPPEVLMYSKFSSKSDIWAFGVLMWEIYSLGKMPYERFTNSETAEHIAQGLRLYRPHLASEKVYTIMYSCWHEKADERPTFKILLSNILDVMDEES

How did the IC50 turn out when `O=C(Nc1cccc(C2CCCN(c3ncnc4[nH]ccc34)C2)c1)Nc1ccccc1C1CCCC1` (stereo not shown) [Cmpd 48, 1-(3-(1-(7H-pyrrolo[2,3-d]pyrimidin-4-yl)piperidin-3-yl)phenyl)-3-(2-cyclopentylphenyl)urea] was run?
Its IC50 is 0.1 to 0.999 µM.

Which IC50 does the source give for `O=C(CCc1ccccc1)Nc1cccc(C2CCCN(c3ncnc4[nH]ccc34)C2)c1` (stereo not shown) [Cmpd 23, N-(3-(1-(7H-pyrrolo[2,3-d]pyrimidin-4-yl)piperidin-3-yl)phenyl)-3-phenylpropanamide] here?
Its IC50 is 1 to 10 µM.

`O=C(Nc1ccccc1)Nc1cccc(C2CCN(c3ncnc4[nH]ccc34)C2)c1` (stereo not shown) [Cmpd 28, 1-(3-(1-(7H-pyrrolo[2,3-d]pyrimidin-4-yl)pyrrolidin-3-yl)phenyl)-3-phenylurea] was tested. Which IC50 did it give?
Its IC50 is 1 to 10 µM.

`O=C1C(Nc2ccccc2)CCN1[C@@H]1CCCN(c2ncnc3[nH]ccc23)C1` (stereo partly drawn) [compound 270, 1-((R)-1-(7H-pyrrolo[2,3-d]pyrimidin-4-yl)piperidin-3-yl)-3-(phenylamino)pyrrolidin-2-one] was tested. Which IC50 did it give?
Its IC50 is 0.1 to 0.999 µM.

With `c1ccc(Nc2nc3ccc(C4CCCN(c5ncnc6[nH]ccc56)C4)cc3[nH]2)cc1` (stereo not shown) [compound 105, 6-(1-(7H-pyrrolo[2,3-d]pyrimidin-4-yl)piperidin-3-yl)-N-phenyl-1H-benzo[d]imidazol-2-amine] as the compound, how does the IC50 read?
Its IC50 is 1 to 10 µM.

Which IC50 does the source give for `O=C(Nc1cccc(C2CCCN(c3ncnc4[nH]ccc34)C2)c1)Nc1cc(F)ccc1N1CCCC1` (stereo not shown) [compound 160] here?
Its IC50 is 0.1 to 0.999 µM.

How did the IC50 turn out when `O=C(Nc1cc(C2CCCN(c3ncnc4[nH]ccc34)C2)ccc1OC(F)(F)F)C1CCCCC1` (stereo not shown) [Cmpd 87, N-(5-(1-(7H-pyrrolo[2,3-d]pyrimidin-4-yl)piperidin-3-yl)-2-(trifluoromethoxy)phenyl)cyclohexanecarboxamide] was run?
Its IC50 is 0.1 to 0.999 µM.

Which IC50 does the source give for `Nc1ncnc(N2CCCC(c3cccc(NC(=O)Nc4ccccc4)c3)C2)c1Cl` (stereo not shown) [Cmpd 99, 1-(3-(1-(6-Amino-5-chloropyrimidin-4-yl)piperidin-3-yl)phenyl)-3-phenylurea] here?
Its IC50 is 1 to 10 µM.

Which IC50 does the source give for `C[C@@H](NC(=O)Nc1cccc(C2CCCN(c3ncnc4[nH]ccc34)C2)c1)C1CCCCC1` (stereo partly drawn) [Cmpd 44, 1-(3-(1-(7H-pyrrolo[2,3-d]pyrimidin-4-yl)piperidin-3-yl)phenyl)-3-((R)-1-cyclohexylethyl)urea] here?
The IC50 was 1 to 10 µM.

For `O=C(Nc1cccc(C2CCCN(c3ncnc4[nH]ccc34)C2)c1)Nc1ccccc1F` (stereo not shown) [compound 182], which IC50 is on record?
Its IC50 is 1 to 10 µM.

`O=C(Nc1cc(C2CCCN(c3ncnc4[nH]ccc34)C2)ccc1OC(F)(F)F)c1c(F)cccc1Cl` (stereo not shown) [Cmpd 90, N-(5-(1-(7H-pyrrolo[2,3-d]pyrimidin-4-yl)piperidin-3-yl)-2-(trifluoromethoxy)phenyl)-2-chloro-6-fluorobenzamide] was tested. Which IC50 did it give?
Its IC50 is 0.1 to 0.999 µM.

With `O=C(Nc1cccc(C2CCCN(c3ncnc4[nH]ccc34)C2)c1)N[C@H](CO)C1CCCCC1` (stereo partly shown) [compound 203] as the compound, how does the IC50 read?
Its IC50 is 1 to 10 µM.

For `O=C(NC[C@H]1CCCC[C@H]1O)Nc1cccc(C2CCCN(c3ncnc4[nH]ccc34)C2)c1` (stereo partly shown) [compound 218], which IC50 is on record?
The IC50 was 1 to 10 µM.

`Nc1ncnc(N2CC[C@H](O)[C@@H](N3CCCC(Nc4cc(Cl)cc(Cl)c4)C3=O)C2)c1F` (stereo partly drawn) [compound 325, trans 1′-(6-Amino-5-fluoropyrimidin-4-yl)-3-(3,5-dichlorophenylamino)-4′-hydroxy-1,3′-bipiperidin-2-one] was tested. Which IC50 did it give?
The IC50 was 0.1 to 0.999 µM.

For `Nc1ncnc(N2CC[C@@H](O)[C@H](N3CCC[C@H](Nc4cc(Cl)cc(Cl)c4)C3=O)C2)c1F` [compound 328, trans (3S)-1′-(6-Amino-5-fluoropyrimidin-4-yl)-3-(3,5-dichlorophenylamino)-4′-hydroxy-1,3′-bipiperidin-2-one], which IC50 is on record?
Its IC50 is 1 to 10 µM.

How did the IC50 turn out when `O=C(Nc1ccccc1)Nc1cccc(C2CCCN(c3ncnc4[nH]ncc34)C2)c1` (stereo not shown) [Cmpd 91, 1-(3-(1-(1H-pyrazolo[3,4-d]pyrimidin-4-yl)piperidin-3-yl)phenyl)-3-phenylurea] was run?
The IC50 was 1 to 10 µM.

With `CCCNc1ncnc(N2CCC[C@@H](N3CCCC(Nc4cc(F)cc(Cl)c4)C3=O)C2)c1F` (stereo partly drawn) [compound 288, (3′R)-3-(3-Chloro-5-fluorophenylamino)-1′-(5-fluoro-6-(propylamino)pyrimidin-4-yl)-1,3′-bipiperidin-2-one] as the compound, how does the IC50 read?
Its IC50 is 1 to 10 µM.

`O=C(Nc1cccc(C2CCCN(c3ncnc4[nH]ccc34)C2)c1)[C@@H](O)c1ccccc1` (stereo partly drawn) [Cmpd 18, (2S)—N-(3-(1-(7H-pyrrolo[2,3-d]pyrimidin-4-yl)piperidin-3-yl)phenyl)-2-hydroxy-2-phenylacetamide] was tested. Which IC50 did it give?
The IC50 was 1 to 10 µM.

How did the IC50 turn out when `O=C(NCC1CCCC1)Nc1cccc(C2CCCN(c3ncnc4[nH]ccc34)C2)c1` (stereo not shown) [compound 166] was run?
Its IC50 is 0.1 to 0.999 µM.

Same assay, conditions: read-out: IC50 (10 uM ATP); 10 uM ATP; in vitro Btk kinase assay, Example 41

With `C[C@H]1CCN(c2ncnc(N)c2F)C[C@@H]1N1CCCC(Nc2cccc(Cl)c2)C1=O` (stereo partly drawn) [compound 282, trans-1′-(6-Amino-5-fluoropyrimidin-4-yl)-3-(3-chlorophenylamino)-4′-methyl-1,3′-bipiperidin-2-one] as the compound, how does the IC50 read?
Its IC50 is under 0.1 µM.

How did the IC50 turn out when `O=C(Nc1csc(C2CCCN(c3ncnc4[nH]ncc34)C2)n1)Nc1ccccc1N1CCCC1` (stereo not shown) [compound 110, 1-(2-(1-(1H-pyrazolo[3,4-d]pyrimidin-4-yl)piperidin-3-yl)thiazol-4-yl)-3-(2-(pyrrolidin-1-yl)phenyl)urea] was run?
The IC50 was under 0.1 µM.

For `CC(C)(C)Nc1c(Nc2cccc(C3CCCN(c4ncnc5[nH]ccc45)C3)c2)c(=O)c1=O` (stereo not shown) [Cmpd 73, 3-(3-(1-(7H-pyrrolo[2,3-d]pyrimidin-4-yl)piperidin-3-yl)phenylamino)-4-(tert-butylamino)cyclobut-3-ene-1,2-dione], which IC50 is on record?
The IC50 was over 10 µM.

For `O=C(Nc1cccc(C2CCCN(c3ncnc4[nH]ccc34)C2)c1)NC1CCCNC1` (stereo not shown) [compound 232], which IC50 is on record?
The IC50 was over 10 µM.

`Nc1ncnc(N2CCC[C@@H](N3CCCC(NCC4CCCCC4)C3=O)C2)c1F` (stereo partly drawn) [compound 293, (3′R)-1′-(6-Amino-5-fluoropyrimidin-4-yl)-3-(cyclohexylmethylamino)-1,3′-bipiperidin-2-one] was tested. Which IC50 did it give?
Its IC50 is over 10 µM.

For `Nc1ncnc(N2CC[C@H](O)[C@@H](N3CCCC(Nc4cc(F)cc(Cl)c4)C3=O)C2)c1F` (stereo partly drawn) [compound 324, trans-1′-(6-Amino-5-fluoropyrimidin-4-yl)-3-(3-chloro-5-fluorophenylamino)-4′-hydroxy-1,3′-bipiperidin-2-one], which IC50 is on record?
The IC50 was under 0.1 µM.

How did the IC50 turn out when `O=C(Nc1cccc(C2CCCN(c3ncnc4[nH]ccc34)C2)c1)Nc1ccccc1N1CCC[C@H]1CO` (stereo partly shown) [compound 152] was run?
Its IC50 is under 0.1 µM.

For `Nc1ncnc(N2CC[C@H](O)[C@@H](N3CCC[C@@H](Nc4cc(Cl)cc(Cl)c4)C3=O)C2)c1F` [compound 326, trans (3R)-1′-(6-Amino-5-fluoropyrimidin-4-yl)-3-(3,5-dichlorophenylamino)-4′-hydroxy-1,3′-bipiperidin-2-one], which IC50 is on record?
The IC50 was under 0.1 µM.

For `O=C1C(Nc2cc(Cl)cc(Cl)c2)CCCN1[C@H]1CN(c2ncnc3[nH]ccc23)CC[C@@H]1C(F)(F)F` (stereo partly drawn) [compound 339, trans-3-(3,5-Dichlorophenylamino)-1′-(7H-pyrrolo[2,3-d]pyrimidin-4-yl)-4′-(trifluoromethyl)-1,3′-bipiperidin-2-one], which IC50 is on record?
The IC50 was under 0.1 µM.

How did the IC50 turn out when `Nc1ncnc(N2CC[C@H](F)[C@H](N3CCC[C@H](Nc4cc(F)cc(Cl)c4)C3=O)C2)c1F` [compound 343, (3S,3′R,4′S)-1′-(6-amino-5-fluoropyrimidin-4-yl)-3-(3-chloro-5-fluorophenylamino)-4′-fluoro-1,3′-bipiperidin-2-one] was run?
The IC50 was over 10 µM.

Which IC50 does the source give for `N#Cc1c(N)ncnc1N1CCCC(c2nc(NC(=O)Nc3c(F)cc(F)cc3N3CCCC3)cs2)C1` (stereo not shown) [compound 113, 1-(2-(1-(6-amino-5-cyanopyrimidin-4-yl)piperidin-3-yl)thiazol-4-yl)-3-(2,4-difluoro-6-(pyrrolidin-1-yl)phenyl)urea] here?
Its IC50 is under 0.1 µM.

`O=C(Nc1cccc(C2CCCN(c3ncnc4[nH]ccc34)C2)c1)Nc1cnccc1N1CCCC1` (stereo not shown) [compound 224] was tested. Which IC50 did it give?
The IC50 was over 10 µM.

Which IC50 does the source give for `O=c1nc(Nc2cccc(C3CCCN(c4ncnc5[nH]ccc45)C3)c2)[nH]c2ccccc12` (stereo not shown) [compound 119, 2-(3-(1-(7H-pyrrolo[2,3-d]pyrimidin-4-yl)piperidin-3-yl)phenylamino)quinazolin-4(1H)-one] here?
Its IC50 is over 10 µM.

With `O=C1[C@H](Nc2cc(Cl)cc(Cl)c2)CCN1[C@@H]1CCCN(c2ncnc3[nH]ccc23)C1` [compound 323, (R)-1-((R)-1-(7H-Pyrrolo[2,3-d]pyrimidin-4-yl)piperidin-3-yl)-3-(3,5-dichlorophenylamino)pyrrolidin-2-one] as the compound, how does the IC50 read?
Its IC50 is under 0.1 µM.

Which IC50 does the source give for `Nc1ncnc(N2CCC[C@@H](N3CCCC(NC4CCC(F)(F)CC4)C3=O)C2)c1F` (stereo partly drawn) [compound 294, (3′R)-1′-(6-Amino-5-fluoropyrimidin-4-yl)-3-(4,4-difluorocyclohexylamino)-1,3′-bipiperidin-2-one] here?
The IC50 was over 10 µM.

With `CC(C)(C)NC(=O)Nc1cccc(C2CCCN(c3ncnc4[nH]ccc34)C2)c1` (stereo not shown) [compound 250] as the compound, how does the IC50 read?
Its IC50 is over 10 µM.

For `O=C(NCC1CCS(=O)(=O)C1)Nc1cccc(C2CCCN(c3ncnc4[nH]ccc34)C2)c1` (stereo not shown) [compound 247], which IC50 is on record?
The IC50 was over 10 µM.

For `Cc1cc(=O)nc(Nc2cccc(C3CCCN(c4ncnc5[nH]ccc45)C3)c2)[nH]1` (stereo not shown) [compound 122, 2-(3-(1-(7H-pyrrolo[2,3-d]pyrimidin-4-yl)piperidin-3-yl)phenylamino)-6-methylpyrimidin-4(1H)-one], which IC50 is on record?
The IC50 was over 10 µM.

With `Cc1ccc(NC(=O)c2ccccc2)cc1C1CCCN(c2ncnc3[nH]ccc23)C1` (stereo not shown) [Cmpd 80, N-(3-(1-(7H-pyrrolo[2,3-d]pyrimidin-4-yl)piperidin-3-yl)-4-methylphenyl)benzamide] as the compound, how does the IC50 read?
Its IC50 is over 10 µM.

`O=C1C(NC2CCCCC2)CCCN1[C@@H]1CCCN(c2ncnc3[nH]ccc23)C1` (stereo partly drawn) [compound 304, (3′R)-3-(Cyclohexylamino)-1′-(7H-pyrrolo[2,3-d]pyrimidin-4-yl)-1,3′-bipiperidin-2-one] was tested. Which IC50 did it give?
Its IC50 is over 10 µM.

How did the IC50 turn out when `O=C(Nc1cccc(C2CCCN(c3ncnc4[nH]ccc34)C2)c1)Nc1ccccc1N1CC[C@H](O)C1` (stereo partly shown) [compound 155] was run?
Its IC50 is under 0.1 µM.

`O=C(Nc1ccc(C2CCCC2)cc1)Nc1cccc(C2CCCN(c3ncnc4[nH]ccc34)C2)c1` (stereo not shown) [compound 255] was tested. Which IC50 did it give?
The IC50 was over 10 µM.

With `N#Cc1ccccc1NC(=O)Nc1cccc(C2CCCN(c3ncnc4[nH]ccc34)C2)c1` (stereo not shown) [Cmpd 65, 1-(3-(1-(7H-pyrrolo[2,3-d]pyrimidin-4-yl)piperidin-3-yl)phenyl)-3-(2-cyanophenyl)urea] as the compound, how does the IC50 read?
The IC50 was over 10 µM.

For `O=C(Nc1ccccc1)N[C@H]1CCCN(C2CCCN(c3ncnc4[nH]ccc34)C2)C1` (stereo partly shown) [compound 237], which IC50 is on record?
The IC50 was over 10 µM.
